Test: Solubility of the liquefied gas in water
Format: physicochemical
Conditions: at 20° C.
Protocol: In the present invention, the liquefied gas to be blended is characterized by being a poorly water-soluble liquefied gas having solubility in water at 20° C. of less than 10 wt %, preferably less than 5 wt %. When the solubility of the liquefied gas in water is more than 10 wt %, the liquefied gas is hardly emulsified with the concentrate and emulsification stability is apt to be lowered, and therefore, a uniform composition tends to be hardly sprayed. In addition, in the case of blending a gas mixture as the liquefied gas, it is enough for the gas mixture to have properties corresponding to those of a poorly water-soluble liquefied gas.

| Compound | solubility in water [wt %] |
| --- | --- |
| COC [dimethyl ether (*17), dimethyl ether] | 33 |
| F/C=C/C(F)(F)F [trans-1,3,3,3-tetrafluoroprop-1-ene] | ≤ 1 |
